According to article PMC5131915, “Platinum(II) Iodido Complexes of 7-Azaindoles with Significant Antiproliferative Effects: An Old Story Revisited with Unexpected Outcomes” (PLoS ONE, 2016):

Columns and labels:
[1] = system: Caco-2 colorectal carcinoma cells; assay: In vitro cytotoxicity testing (MTT assay), Caco-2; format: cell-based, human; details: 24 h drug exposure, no recovery, MTT; read-out: IC50±SD, Caco-2
Experimental: (§1) All cell lines were grown as adherent monolayers at 37°C and 5% CO2 in a humidified atmosphere.
(§2) The MTT assay was used to determine the cell viability; MTT = 3-(4,5-dimethylthiazol-2-yl)-2,5-diphenyltetrazolium bromide. A concentration of the formed dye was evaluated spectrophotometrically at 540 nm (TECAN, Schoeller Instruments LLC).
(§3) The data were expressed as the percentage of viability, where 100% and 0% represents the treatments with negative and positive controls, respectively. The data from the cancer cells were acquired from three independent experiments (conducted in triplicate) using cells from different passages. The resulting IC50 values (μM) were calculated from viability curves and the results are presented as arithmetic mean±SD.

[2] = system: 22Rv1 prostate carcinoma cells; assay: In vitro cytotoxicity testing (MTT assay), 22Rv1; format: cell-based, human; details: 24 h drug exposure, no recovery, read-out: IC50±SD, 22Rv1
Experimental: (§4) A2780 ovarian carcinoma, A2780R cisplatin-resistant ovarian carcinoma, HOS osteosarcoma, G361 malignant melanoma, MCF7 breast carcinoma, A549 lung carcinoma, HeLa cervix carcinoma, 22Rv1 prostate carcinoma and Caco-2 colorectal carcinoma human cancer cell lines were purchased from the European Collection of Cell Cultures (ECACC), while the human non-cancerous hepatocytes (Hep) were supplied by Biopredic Intl. The cell lines were cultured, according to the suppliers`instructions, in RPMI-1640 medium supplemented with 10% of fetal calf serum, 1% of 2 mM glutamine, and 1% penicillin/streptomycin. All cell lines were grown as adherent monolayers at 37°C and 5% CO2 in a humidified atmosphere.
(§5) The cells were seeded to 96-well culture plates, pre-incubated in drug-free media at 37°C for 24 h and treated typically with the 0.01–50.0 μM solutions, prepared from the stock solutions by dilution with medium, for 24 h at 37°C. […] In parallel with compounds 1–8 and the reference drugs, the cells were also treated with vehicle (0.1% DMF in medium; negative control) and Triton X-100 (1%; positive control) to assess the minimal and maximal cell damage, respectively. The MTT assay was used to determine the cell viability; MTT = 3-(4,5-dimethylthiazol-2-yl)-2,5-diphenyltetrazolium bromide. A concentration of the formed dye was evaluated spectrophotometrically at 540 nm (TECAN, Schoeller Instruments LLC).
as §3

[3] = system: A549 lung carcinoma cells; assay: In vitro cytotoxicity testing (MTT assay), A549; format: cell-based, human; details: 24 h drug exposure, no recovery, read-out: IC50±SD, A549
Experimental: as §4, §5, §3

[4] = system: HeLa cervix carcinoma cells; assay: In vitro cytotoxicity testing (MTT assay), HeLa; format: cell-based, human; details: 24 h drug exposure, no recovery, read-out: IC50±SD, HeLa
Experimental: as §4, §5, §3

[5] = system: MCF7 breast carcinoma cells; assay: In vitro cytotoxicity testing (MTT assay), MCF7; format: cell-based, human; details: 24 h drug exposure, no recovery, read-out: IC50±SD, MCF7
Experimental: as §4, §5, §3

[6] = system: human non-cancerous hepatocytes (Hep); assay: In vitro cytotoxicity testing (MTT assay), hepatocytes; format: cell-based; details: 24 h drug exposure, no recovery
Experimental: as §4, §5, §3

[7] = system: A2780R cisplatin-resistant ovarian carcinoma cells; assay: In vitro cytotoxicity testing (MTT assay), A2780R; format: cell-based, human; details: for resistance factor (RF), IC50(A2780R)/IC50(A2780): 24 h IC50 values; for IC50: 24 h drug exposure, no recovery, MTT, read-out: IC50±SD, A2780R
Experimental: as §1, §2, §3

[8] = system: A2780 ovarian carcinoma cells; assay: In vitro cytotoxicity testing (MTT assay), A2780; format: cell-based, human; details: 24 h drug exposure, no recovery, MTT; read-out: IC50±SD, A2780
Experimental: as §1, §2, §3

[9] = system: G361 malignant melanoma cells; assay: In vitro cytotoxicity testing (MTT assay), G361; format: cell-based, human; details: 24 h drug exposure, no recovery, read-out: IC50±SD, G361
Experimental: as §4, §5, §3

HOS osteosarcoma cells = assay: In vitro cytotoxicity testing (MTT assay), HOS; format: cell-based, human; details: 24 h drug exposure, no recovery, MTT; read-out: IC50±SD, HOS
Experimental: as §4, §5, §3

[10] = system: cisplatin-resistant HCT116 colon cancer cell line; set-up: method as in PMID 26226326; details: cited from earlier work
[11] = system: cisplatin-sensitive HCT116 colon cancer cell line; set-up: method as in PMID 26226326; details: cited from earlier work

Structure (SMILES) | IC50 [1] [µM] | IC50 [2] [µM] | IC50 [3] [µM] | IC50 [4] [µM] | IC50 [5] [µM] | IC50 [6] [µM] | resistance factor (RF), IC50(A2780R)/IC50(A2780) [7] | IC50 [7] [µM] | IC50 [8] [µM] | IC50 [9] [µM] | IC50 (HOS osteosarcoma cells) [µM] | IC50 [10] [µM] | IC50 [11] [µM]
Brc1c[nH]c2ncccc12.Brc1c[nH]c2ncccc12.[I][Pt][I] [Complex 3, cis-[Pt(3Braza)2I2]] | 3 ± 0.1 | 4.2 ± 1.2 | 8.8 ± 2.2 | 4.7 ± 0.8 | 1.9 ± 0.5 | 3.9 | 1.14 | 3.2 ± 0.2 | 2.8 ± 0.3 | 3.1 ± 0.2 | 2.2 ± 1.2 |  | 
N.N.[I-].[I-].[Pt+2] [cis-[PtI2(NH3)2]] |  |  |  |  |  |  |  |  |  |  |  | 4.2 | 13.4
[I][Pt][I].c1cnc2[nH]ccc2c1.c1cnc2[nH]ccc2c1 [Complex 1, cis-[Pt(aza)2I2]] | 3.3 ± 0.2 | 4.6 ± 1.2 | 12.3 ± 1.1 | 7 ± 0.6 | 1.7 ± 0.8 | 3.9 | 0.94 | 3.3 ± 0.3 | 3.5 ± 0.7 | 2.9 ± 0.6 | 0.8 ± 0.4 |  | 
